The target in the assay is Glycogen synthase kinase-3 alpha (Homo sapiens) (UniProt P49840). Nature of the assay: concentration-response blocking of human GSK3A – biochemical, luminescence, cell-free homogeneous, retest, dose response (AID 463203). As to conditions: GSK-3 alpha enzyme, ADP-Glo luminescence, 60 min. For orientation: ADP-Glo turns the ADP formed in a reaction into a luminescent signal.

Activity calls are given as the source filed them.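 How the source made its calls: active means more than half of replicate measurements showing over 20% loss of kinase signal relative to plate controls; inconclusive means some but at most half of replicates over 20% loss; inactive means no replicate over 20% signal loss.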 A value given as a limit tells only on which side of the number the result lay.

Glycogen synthase kinase-3 alpha (Homo sapiens), sequence (P49840 whole entry, looked up): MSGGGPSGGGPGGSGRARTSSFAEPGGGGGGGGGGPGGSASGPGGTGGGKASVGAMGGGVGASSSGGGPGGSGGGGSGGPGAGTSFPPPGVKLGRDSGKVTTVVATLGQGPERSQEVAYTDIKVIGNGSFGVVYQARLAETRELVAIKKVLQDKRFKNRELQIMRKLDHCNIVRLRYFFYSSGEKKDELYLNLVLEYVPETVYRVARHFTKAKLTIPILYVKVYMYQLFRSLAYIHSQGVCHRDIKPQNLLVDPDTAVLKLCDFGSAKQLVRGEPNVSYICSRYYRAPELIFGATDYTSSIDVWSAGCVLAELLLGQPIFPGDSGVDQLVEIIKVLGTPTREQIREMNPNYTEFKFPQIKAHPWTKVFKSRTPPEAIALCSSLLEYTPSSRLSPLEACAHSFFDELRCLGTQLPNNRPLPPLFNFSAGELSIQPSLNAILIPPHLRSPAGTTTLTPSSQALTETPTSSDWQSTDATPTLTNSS

For orientation: AC50 means the concentration at which the activity in the assay is half-maximal. In the case of `CC(=O)c1cc(-c2ccc(F)cc2)n(CCC(=O)Nc2cc(C)[nH]n2)c1C`, the AC50 was 11.9 µM.
For `CN(C)CCCNS(=O)(=O)c1ccc(NC2CCCCCC2)c([N+](=O)[O-])c1`, the AC50 was > 30 µM (inactive).
For the compound `Cc1ccnc(NC(=O)CCC(=O)N(CC(=O)NCc2ccccc2)Cc2ccco2)c1`, the AC50 was 13.4 µM.
Regarding `CC(=O)Nc1cccc(-c2csc(Nc3ccc(C)cn3)n2)c1`, the AC50 is > 30 µM (inactive).
As for `Nc1ccccc1-c1nc2ccccc2[nH]1`, the AC50 was > 30 µM (inactive).
Regarding `Nc1nonc1-n1nnc(C(=O)N/N=C/c2cccnc2)c1-c1cccs1`, the AC50 is 1.03 µM.
As to `O=C(CSCc1ccccn1)Nc1ccccc1`, the AC50 is > 30 µM (inactive).
Regarding `Cc1cc(NS(=O)(=O)c2ccc(Nc3nc(-c4ccc(O)cc4)cs3)cc2)no1`, the AC50 is 15.3 µM.
As for `COc1cc2ncc(S(=O)(=O)c3ccccc3)c(N3CCCC(C)C3)c2cc1OC` (stereo unspecified), the AC50 is > 30 µM (inactive).
Turning to `O=C1OCCC1Sc1nnc(-c2ccc3c(c2)OCO3)o1` (stereo unspecified), the AC50 is 25.9 µM.
For the compound `Cc1ccc(Sc2ccc(NC(=O)CCl)cc2)cc1C`, the AC50 was > 30 µM (inactive).
With `COc1ccc(OC)c(NC(=O)c2nnn(Cc3ccc(Br)cc3F)c2N)c1`, the AC50 is > 30 µM (inactive).
The figure for `COc1ccc(Nc2nc(-c3ccccc3)cs2)cc1` is > 30 µM (inactive).
As to `Cc1cnc(NC(=O)C2COc3ccccc3O2)s1` (stereo unspecified), the AC50 was 19.2 µM.
To `CCOC(=O)c1c(C)c[nH]c1C` belongs > 30 µM (inactive); to `O=C(Nc1ccccc1N1CCOCC1)c1ccc(S(=O)(=O)NCc2ccco2)cc1`, > 30 µM (inactive); to `C/C(CC(=O)Nc1ccc(Cl)cc1Cl)=N\NC(=O)C(=O)N1CCCC1`, > 30 µM (inactive).
On to `Fc1ccccc1-c1nnc2ccc3ccccc3n12`, for which the AC50 is > 30 µM (inactive).
As to `Cc1ccc(C(=O)Nc2nnc(C)s2)cc1`, the AC50 was > 30 µM (inactive).
Consider `CC(C)c1ccc(/C=N/NC(=O)c2nnn(-c3nonc3N)c2CN(C)C2CCCCC2)cc1`, for which the AC50 was > 30 µM (inactive).
On to `CCOC(=O)c1nn(-c2ccc(Cl)cc2)c2nc(Nc3ccccc3)cc(=O)n12`, for which the AC50 was > 30 µM (inactive).
On to `N#Cc1cnn2c3c(cnc12)C(=O)N1CCc2ccccc2C1C3` (stereo unspecified), for which the AC50 was > 30 µM (inactive).
With `CCOc1cccc(-c2c(C(=O)N/N=C/c3sccc3C)nnn2-c2nonc2N)c1`, the AC50 was > 30 µM (inactive).
With `CCc1ccccc1NC(=O)CSc1nnc([C@@H](N)Cc2c[nH]c3ccccc23)o1`, the AC50 is > 30 µM (inactive).
To `Nc1nonc1-n1nnc(C(=O)N/N=C/c2ccncc2)c1CSc1ccc(Cl)cc1` belongs > 30 µM (inactive); to `CCOC(=O)c1nnn(-c2nonc2N)c1COc1c(C=O)cccc1OC`, 4.32 µM; to `CSc1nc(SCCN(C)C)c2c3c(sc2n1)COC(C)(C)C3`, > 30 µM (inactive).
With `CCOC(=O)c1[nH]c2c(c1C)C(=O)CC(c1ccc(OC)c(OC)c1)C2` (stereo unspecified), the AC50 is > 30 µM (inactive).
Take `CCOc1ccc(-c2nnc(N)o2)cc1`: the AC50 is > 30 µM (inactive).
For `CCOC(=O)c1c2c(n(C)c1C)C(=O)C(=O)c1ccc(Br)cc1-2`, the AC50 is 15 µM.
The figure for `CCOc1ccc(C2C3=C(CCCC3=O)Nc3ccc4ncccc4c32)cc1` (stereo unspecified) is > 30 µM (inactive); for `C/C(=N\NC(=O)c1ccccc1NC(=O)c1ccc(Cl)cc1)c1ccncc1` it is 12.6 µM; for `COc1ccc(-c2cn3cccnc3n2)cc1NC(=O)C1CCCC1` it is > 30 µM (inactive).
To `COc1ccc(CC(=S)N2CCOCC2)cc1` belongs > 30 µM (inactive); to `Clc1ccc(CSc2nncn2-c2ccc3c(c2)OCCO3)cc1`, > 30 µM (inactive); to `Cc1ccc(N(CC(O)CN2CCCC2)S(=O)(=O)c2ccccc2)cc1` (stereo unspecified), > 30 µM (inactive).
To `CC(C)(C)CNc1cc(N2CCCC2)ccc1[N+](=O)[O-]` belongs > 30 µM (inactive); to `COc1ccc(-c2nnc(-c3ccccc3O)o2)cc1`, > 30 µM (inactive).
As to `COc1ccc(NC(=O)Nc2ccc(Br)c(C)c2)cc1`, the AC50 is > 30 µM (inactive).
Consider `O=[N+]([O-])c1ccc(-c2nnc(CNC3CCCC3)o2)cc1`, for which the AC50 is > 30 µM (inactive).
With `O=[N+]([O-])c1ccccc1/C=N/n1c(-c2cccnc2)n[nH]c1=S`, the AC50 was 28 µM.
To `CCc1ccc(C2CC(c3ccc(Cl)cc3)n3nc(N)nc3N2)cc1` (stereo unspecified) belongs > 30 µM (inactive).
Consider `COc1cccc(NC(=O)CN(C)C(=O)C23CC4CC(CC(Cl)(C4)C2)C3)c1`, for which the AC50 was > 30 µM (inactive).
The figure for `COc1ccc(NC(=O)Nc2ccc(F)cc2F)c(C)c1` is > 30 µM (inactive); for `CCN1CCN(c2nc(Nc3ccccc3F)nc(N)c2[N+](=O)[O-])CC1` it is > 30 µM (inactive).
With `Cc1oc2ccc(O)c(CN3CCOCC3)c2c1C(=O)c1ccc(Cl)cc1`, the AC50 is > 30 µM (inactive).
For `Fc1ccccc1/C=N/Nc1ncnc2ccccc12`, the AC50 is > 30 µM (inactive).
To `COCCOC(=O)c1[nH]c2c(c1C)C(=O)CC(c1cc(OC)c(OC)c(OC)c1)C2` (stereo unspecified) belongs > 30 µM (inactive); to `Cc1cccc(C)c1OCC(O)CNC(C)c1ccccc1` (stereo unspecified), > 30 µM (inactive).
Take `Cc1occc1C(=O)N/N=C/c1ccc(N(C)C)cc1`: the AC50 is 23.1 µM.
For the compound `C/C(=N\NC(=O)c1nnn(-c2nonc2N)c1-c1cccs1)c1ccncc1`, the AC50 is 1.02 µM.
Regarding `COc1ccccc1/C=C1\S/C(=N/NC(=O)c2cccc(Br)c2)NC1=O`, the AC50 was > 30 µM (inactive).
As to `Cc1cc(OC(=O)c2c(C)cc(OC(=O)c3c(C)cc(O)cc3O)cc2O)cc(O)c1C(=O)O`, the AC50 is > 30 µM (inactive).
The figure for `Cc1cccc(NC(=O)CSCc2nc3c(nnn3Cc3ccc(F)cc3)c(=O)[nH]2)c1C` is > 30 µM (inactive).
As to `Cn1c(SCc2nc(-c3ccc(Cl)cc3)no2)nnc1-c1ccccc1`, the AC50 was > 30 µM (inactive).
Turning to `N#C/C(=C/Nc1ccccc1)c1ccsc1`, the AC50 was > 30 µM (inactive).
Consider `Cc1nc(SCCC(C)C)c([N+](=O)[O-])[nH]1`, for which the AC50 is > 30 µM (inactive).
On to `CCCCc1[nH]c(=O)c(C#N)c2c1CCCC2`, for which the AC50 is > 30 µM (inactive).
Turning to `COc1cccc(/C=N/n2cncn2)c1OCC#N`, the AC50 was > 30 µM (inactive).
The figure for `Oc1cccc(Nc2c3ccccc3nc3ccccc23)c1` is > 30 µM (inactive).
Consider `CCCCN(CCCC)S(=O)(=O)c1ccc2oc(C(=O)N3CCOCC3)c(C)c2c1`, for which the AC50 was > 30 µM (inactive).
To `COc1cc(O)cc2c1C(=O)OC(C)CCCC(=O)CCC/C=C\2` (stereo unspecified) belongs > 30 µM (inactive).
On to `CCc1c(C)sc(NC(=O)C2CC2c2ccccc2)c1C(N)=O` (stereo unspecified), for which the AC50 was > 30 µM (inactive).
As for `C[n+]1cccc(/C=N/Nc2nc(Cl)c(C#N)c(Cl)c2Cl)c1`, the AC50 was > 30 µM (inactive).
The figure for `CS(=O)(=O)Nc1ccc(-c2cc(/C=C3\SC(N)=NC3=O)c[nH]c2=O)cc1` is 7.53 µM; for `C[C@@H](NC(=O)c1[nH]cnc1C(=O)Nc1ccon1)c1ccccc1` it is 11.6 µM.
Regarding `NNc1nc2sc3c(c2c(=O)[nH]1)CCc1ccccc1-3`, the AC50 is > 30 µM (inactive).
The figure for `Cc1cccc(C(=O)Nc2cccc(C(=O)N/N=C/c3ccccn3)c2)c1` is 23.3 µM; for `NC(=O)c1cc([N+](=O)[O-])ccc1NCc1ccc(O)cc1` it is 4.32 µM; for `C=CCn1c(O)c(/C(C)=N/N2CCCCCC2)c(=O)[nH]c1=O` it is 28.8 µM.
Take `CC1=C(C(=O)OCc2ccc3c(c2)OCO3)C(c2ccccc2)NC(=O)N1` (stereo unspecified): the AC50 is 1.97 µM.
The figure for `CCOC(=O)c1[nH]c2c(c1-c1ccccc1)C(=O)CC(c1ccc(Cl)cc1)C2` (stereo unspecified) is > 30 µM (inactive); for `Clc1ccc(/C=N/Nc2ncnc3ccccc23)cc1Cl` it is > 30 µM (inactive).
For the compound `CCC(C)[C@H](NC(=O)NCc1ccccc1Cl)C(=O)OC` (stereo partly specified), the AC50 was > 30 µM (inactive).
`Cc1cccc(-c2c3c(=O)n(C)c(=O)n(C)c3c3cccnn23)c1`: the AC50 is > 30 µM (inactive).
Regarding `Clc1ccc(-c2nnc(SCc3nc(-c4ccccc4)no3)o2)cc1`, the AC50 is > 30 µM (inactive).
To `Cc1cc2nc(-c3ccc(=O)[nH]c3)n(Cc3ccccc3)c2cc1C` belongs > 30 µM (inactive); to `COC(=O)c1ccc2c(=O)[nH]c(COC(=O)c3cccc(S(=O)(=O)N4CCOCC4)c3)nc2c1`, 6.88 µM; to `COC1OC(COC(=O)c2ccccc2)C(OC(=O)c2ccccc2)C1OC(=O)c1ccccc1` (stereo unspecified), > 30 µM (inactive).
Consider `O=C(CN1CCOCC1)Nc1cccc(Br)c1`, for which the AC50 is > 30 µM (inactive).
As for `CSc1ccc(C2C3(C#N)C(N)=NC4(OCCO4)C23C#N)cc1` (stereo unspecified), the AC50 is > 30 µM (inactive).
Consider `Cc1nc(NC(=O)c2ccccc2)sc1Cc1ccc2c(c1)OCO2`, for which the AC50 is > 30 µM (inactive).
For the compound `Cc1nc(Nc2ccc(C(=O)O)cc2)nc(Nc2ccc(C(=O)O)cc2)c1[N+](=O)[O-]`, the concentration at half-maximal activity (AC50) was 11.7 µM.
Consider `CCSc1nc(N)c(C#N)c(-c2ccco2)c1C#N`, for which the AC50 is > 30 µM (inactive).
In the case of `CC(C)(C)NC(=O)/C(=C/c1ccccc1F)NC(=O)c1ccc([N+](=O)[O-])cc1`, the AC50 is > 30 µM (inactive).
For `O=C(c1ccco1)c1cn(CC(=O)N2CCCC2)c2ccccc12`, the AC50 is > 30 µM (inactive).
The figure for `O=C(CSc1nnc(-c2ccncc2)s1)Nc1ccccc1` is > 30 µM (inactive); for `CCSc1nc2sc3c(c2c(=O)n1CC)CC(C)(C)OC3` it is > 30 µM (inactive); for `CC(=O)C1C(c2ccccc2)c2c(n[nH]c2C)CC1(C)O` (stereo unspecified) it is > 30 µM (inactive).
To `CCOC(=O)c1nnn(-c2ccc(OC)cc2)c1N` belongs > 30 µM (inactive).
In the case of `Oc1cc(O)cc(-c2cc3ccc(O)cc3o2)c1`, the AC50 was > 30 µM (inactive).

Source of the values: PubChem BioAssay AID463203 (Broad Institute, 2010).
